pIC50: −log10 of the molar value.
Target: H1047R PIK3CA enzyme (Homo sapiens, UniProt P42336, H1047R)
Test: ADP-Glo Biochemical PIK3CA Kinase Assay

Chain of H1047R PIK3CA enzyme (P42336 whole entry H1047R): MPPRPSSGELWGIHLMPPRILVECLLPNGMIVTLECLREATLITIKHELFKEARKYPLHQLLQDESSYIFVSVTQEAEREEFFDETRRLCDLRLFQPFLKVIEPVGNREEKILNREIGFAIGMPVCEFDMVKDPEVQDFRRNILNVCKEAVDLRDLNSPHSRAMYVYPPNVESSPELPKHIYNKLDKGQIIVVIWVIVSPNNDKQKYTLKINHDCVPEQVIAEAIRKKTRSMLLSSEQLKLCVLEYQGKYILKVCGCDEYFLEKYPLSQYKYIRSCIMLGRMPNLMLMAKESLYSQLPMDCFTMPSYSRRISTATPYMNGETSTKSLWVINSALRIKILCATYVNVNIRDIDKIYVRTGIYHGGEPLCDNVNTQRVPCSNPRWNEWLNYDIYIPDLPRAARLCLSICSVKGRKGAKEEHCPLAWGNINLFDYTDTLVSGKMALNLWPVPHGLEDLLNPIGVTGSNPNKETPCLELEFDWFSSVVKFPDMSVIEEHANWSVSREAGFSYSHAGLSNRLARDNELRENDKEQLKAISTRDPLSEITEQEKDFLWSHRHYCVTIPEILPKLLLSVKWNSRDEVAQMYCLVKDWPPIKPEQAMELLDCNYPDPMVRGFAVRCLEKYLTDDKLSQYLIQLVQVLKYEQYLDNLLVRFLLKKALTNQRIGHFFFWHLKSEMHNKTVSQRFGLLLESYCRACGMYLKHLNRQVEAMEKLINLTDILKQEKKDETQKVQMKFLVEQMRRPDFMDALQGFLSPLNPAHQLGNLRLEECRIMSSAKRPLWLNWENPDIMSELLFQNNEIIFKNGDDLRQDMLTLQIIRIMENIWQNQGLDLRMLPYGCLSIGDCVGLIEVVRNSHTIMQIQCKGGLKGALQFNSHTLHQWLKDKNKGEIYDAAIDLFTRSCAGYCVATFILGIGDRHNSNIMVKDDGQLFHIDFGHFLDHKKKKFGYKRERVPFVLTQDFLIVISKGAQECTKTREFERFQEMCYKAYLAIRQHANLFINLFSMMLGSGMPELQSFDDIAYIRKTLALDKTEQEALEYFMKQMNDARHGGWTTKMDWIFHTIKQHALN
Chain of H1047R PIK3CA enzyme (P27986 whole entry partner): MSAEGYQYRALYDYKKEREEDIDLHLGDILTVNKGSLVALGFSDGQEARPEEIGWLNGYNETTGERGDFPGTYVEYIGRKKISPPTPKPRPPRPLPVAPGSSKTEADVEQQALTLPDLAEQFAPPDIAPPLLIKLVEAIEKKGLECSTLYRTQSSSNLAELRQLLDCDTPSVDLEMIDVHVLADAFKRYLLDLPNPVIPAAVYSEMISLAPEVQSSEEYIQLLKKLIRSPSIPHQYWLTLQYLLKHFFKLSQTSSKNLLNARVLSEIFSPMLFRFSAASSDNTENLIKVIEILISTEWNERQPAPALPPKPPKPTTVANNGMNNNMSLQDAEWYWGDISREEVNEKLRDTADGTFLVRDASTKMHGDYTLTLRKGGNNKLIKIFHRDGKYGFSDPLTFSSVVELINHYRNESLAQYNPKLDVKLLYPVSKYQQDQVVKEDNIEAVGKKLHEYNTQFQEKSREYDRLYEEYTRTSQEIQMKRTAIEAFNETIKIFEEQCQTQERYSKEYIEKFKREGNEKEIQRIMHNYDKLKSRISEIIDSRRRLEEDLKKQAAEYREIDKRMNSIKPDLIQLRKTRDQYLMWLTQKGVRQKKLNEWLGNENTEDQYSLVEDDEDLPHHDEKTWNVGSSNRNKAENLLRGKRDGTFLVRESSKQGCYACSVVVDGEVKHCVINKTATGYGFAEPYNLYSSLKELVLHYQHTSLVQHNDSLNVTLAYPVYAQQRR

SMILES	pIC50
N#C[C@H]1C[C@@H](Oc2cc(NC(=O)c3cc(F)cc(C(F)(F)F)c3)c3c(c2)C(=O)N[C@H]3c2cc(F)ccc2Cl)C1 [Compound I-1334]	≥ 7.00
O=C(Nc1cc(-c2cn3ncnc3cn2)cc2c1C(c1cc(F)ccc1Cl)NC2=O)c1cc(F)cc(C(F)(F)F)c1 (stereo not shown) [Compound I-1335]	≥ 7.00
CS(=O)(=O)Cn1cc(-c2cc(NC(=O)c3cc(F)cc(C(F)(F)F)c3)c3c(c2)C(=O)NC3c2cc(F)ccc2Cl)cn1 (stereo not shown) [Compound I-1336]	≥ 7.00
O=C(Nc1cc(C(O)C2(O)COC2)cc2c1C(c1cc(F)ccc1Cl)NC2=O)c1cc(F)cc(C(F)(F)F)c1 (stereo not shown) [Compound I-1337]	6.30 to 7.00
O=C(Nc1cc(OCC2(O)COC2)cc2c1C(c1cc(F)ccc1Cl)NC2=O)c1cc(F)cc(C(F)(F)F)c1 (stereo not shown) [Compound I-1338]	6.30 to 7.00
O=C(Nc1cc(CC2(CO)COC2)cc2c1C(c1cc(F)ccc1Cl)NC2=O)c1cc(F)cc(C(F)(F)F)c1 (stereo not shown) [Compound I-1339]	≥ 7.00
O=C(Nc1cc(-c2ccnn2CCO)cc2c1C(c1cc(F)ccc1Cl)NC2=O)c1cc(F)cc(C(F)(F)F)c1 (stereo not shown) [Compound I-1340]	≥ 7.00
O=C(Nc1cc(OCC(O)CO)cc2c1C(c1cc(F)ccc1Cl)NC2=O)c1cc(F)cc(C(F)(F)F)c1 (stereo not shown) [Compound I-1341]	≥ 7.00
O=C(Nc1cc(-c2ccc3ncnn3c2)cc2c1C(c1cc(F)ccc1Cl)N(CO)C2=O)c1cc(F)cc(C(F)(F)F)c1 (stereo not shown) [Compound I-1342]	6.30 to 7.00
CC(C)[C@H](N)C(=O)N1C(=O)c2cc(-c3ccc4ncnn4c3)cc(NC(=O)c3cc(F)cc(C(F)(F)F)c3)c2C1c1cc(F)ccc1Cl (stereo partly shown) [Compound I-1343]	≥ 7.00
CS(=O)(=O)N1CC(Oc2cc(NC(=O)c3cc(F)cc(C(F)(F)F)c3)c3c(c2)C(=O)NC3c2cc(F)ccc2Cl)C1 (stereo not shown) [Compound I-1346]	≥ 7.00
Cn1nc(Nc2cc(Br)cc3c2C(c2cc(F)ccc2Cl)NC3=O)c2ccccc21 (stereo not shown) [Compound I-1349]	4.00 to 5.00
O=C(Nc1cc(Br)cc2c1C(c1cc(F)ccc1Cl)NC2=O)c1cc(F)cc(CC2CCC2)c1 (stereo not shown) [Compound I-1350]	5.00 to 6.00
O=C(Nc1cc(Br)cc2c1C(c1cc(F)ccc1Cl)NC2=O)c1cc(F)cc(C2CCC2)c1 (stereo not shown) [Compound I-1351]	5.00 to 6.00
O=C1NC(c2cc(F)ccc2Cl)c2c(NS(=O)(=O)c3cc(F)cc(C(F)(F)F)c3)cc(Br)cc21 (stereo not shown) [Compound I-1352]	4.00 to 5.00
O=C(Nc1cc(F)cc(C(F)(F)F)c1)c1cccc2c1C(c1cc(F)ccc1Cl)NC2=O (stereo not shown) [Compound I-1353]	5.00 to 6.00
O=C(Nc1cc(N2CCn3cnnc3C2)cc2c1C(c1cc(F)ccc1Cl)NC2=O)c1cc(F)cc(C(F)(F)F)c1 (stereo not shown) [Compound I-1354]	≥ 7.00
O=C(Nc1cc(-c2cn3cccnc3n2)cc2c1C(c1cc(F)ccc1Cl)NC2=O)c1cc(F)cc(C(F)(F)F)c1 (stereo not shown) [Compound I-1355]	≥ 7.00
O=C(Nc1cc(NC(=O)c2cc(F)cc(C(F)(F)F)c2)c2c(c1)C(=O)NC2c1cc(F)ccc1Cl)c1cccnc1 (stereo not shown) [Compound I-1356]	≥ 7.00
O=C(Nc1cc(OCC2(CO)COC2)cc2c1C(c1cc(F)ccc1Cl)NC2=O)c1cc(F)cc(C(F)(F)F)c1 (stereo not shown) [Compound I-1357]	≥ 7.00
O=C1NCC(c2cc(NC(=O)c3cc(F)cc(C(F)(F)F)c3)c3c(c2)C(=O)NC3c2cc(F)ccc2Cl)O1 (stereo not shown) [Compound I-1359]	≥ 7.00
O=C1CC(c2cc(NC(=O)c3cc(F)cc(C(F)(F)F)c3)c3c(c2)C(=O)NC3c2cc(F)ccc2Cl)CN1 (stereo not shown) [Compound I-1360]	≥ 7.00

SMILES	pIC50
O=C(Nc1cc(C2COCCO2)cc2c1C(c1cc(F)ccc1Cl)NC2=O)c1cc(F)cc(C(F)(F)F)c1 (stereo not shown) [Compound I-1361]	6.30 to 7.00
O=C1NC(c2cc(F)ccc2Cl)c2c(NC(=O)C3CC4(CCC4)C3)cc(Br)cc21 (stereo not shown) [Compound I-1362]	5.00 to 6.00
O=C1NC(c2cc(F)ccc2Cl)c2c(NC(=O)C34CC5CC(CC(O)(C5)C3)C4)cc(Br)cc21 (stereo not shown) [Compound I-1363]	5.00 to 6.00
O=C(Nc1cc(CS(=O)(=O)N2CCOCC2)cc2c1C(c1cc(F)ccc1Cl)NC2=O)c1cc(F)cc(C(F)(F)F)c1 (stereo not shown) [Compound I-1364]	≥ 7.00
CNS(=O)(=O)Cc1cc(NC(=O)c2cc(F)cc(C(F)(F)F)c2)c2c(c1)C(=O)NC2c1cc(F)ccc1Cl (stereo not shown) [Compound I-1365]	≥ 7.00
NS(=O)(=O)Cc1cc(NC(=O)c2cc(F)cc(C(F)(F)F)c2)c2c(c1)C(=O)NC2c1cc(F)ccc1Cl (stereo not shown) [Compound I-1367]	≥ 7.00
Nc1nc2ccc(-c3cc(NC(=O)c4cc(F)cc(C(F)(F)F)c4)c4c(c3)C(=O)NC4c3cc(F)ccc3Cl)cn2n1 (stereo not shown) [Compound I-1368]	≥ 7.00
Cc1ncc(C#N)c(-c2cc(NC(=O)c3cc(F)cc(C(F)(F)F)c3)c3c(c2)C(=O)NC3c2cc(F)ccc2Cl)n1 (stereo not shown) [Compound I-1369]	≥ 7.00
Nc1nc2cc(-c3cc(NC(=O)c4cc(F)cc(C(F)(F)F)c4)c4c(c3)C(=O)NC4c3cc(F)ccc3Cl)ccn2n1 (stereo not shown) [Compound I-1370]	≥ 7.00
O=C(Nc1cc(-c2ccn3ncnc3c2)cc2c1C(c1cc(F)ccc1Cl)NC2=O)c1cc(F)cc(C(F)(F)F)c1 (stereo not shown) [Compound I-1371]	≥ 7.00
O=C(Nc1cc(-c2ccn3ccnc3c2)cc2c1C(c1cc(F)ccc1Cl)NC2=O)c1cc(F)cc(C(F)(F)F)c1 (stereo not shown) [Compound I-1372]	≥ 7.00
Nc1nnc2ccc(-c3cc(NC(=O)c4cc(F)cc(C(F)(F)F)c4)c4c(c3)C(=O)NC4c3cc(F)ccc3Cl)cn12 (stereo not shown) [Compound I-1373]	≥ 7.00
O=C(Nc1cc(-c2ccc3nnnn3c2)cc2c1C(c1cc(F)ccc1Cl)NC2=O)c1cc(F)cc(C(F)(F)F)c1 (stereo not shown) [Compound I-1374]	≥ 7.00
O=C(Nc1cc(CC(O)CO)cc2c1C(c1cc(F)ccc1Cl)NC2=O)c1cc(F)cc(C(F)(F)F)c1 (stereo not shown) [Compound I-1376]	≥ 7.00
O=C1NC(c2cc(F)ccc2Cl)c2c(Nc3cc(CO)c(C(F)(F)F)cn3)cccc21 (stereo not shown) [Compound I-1377]	4.00 to 5.00
Cn1nccc1C(=O)c1cc(NC(=O)c2cc(F)cc(C(F)(F)F)c2)c2c(c1)C(=O)NC2c1cc(F)ccc1Cl (stereo not shown) [Compound I-1380]	≥ 7.00
O=C(Nc1cc(Br)cc2c1C(c1cc(F)ccc1Cl)NC2=O)c1cc(F)cc2c1NC(=O)C2(F)F (stereo not shown) [Compound I-1381]	6.30 to 7.00
CN(Cc1cccc(O)c1)C(=O)Nc1cc(Br)cc2c1C(c1cc(F)ccc1Cl)NC2=O (stereo not shown) [Compound I-1382]	4.00 to 5.00
O=C1NC(c2cc(F)ccc2Cl)c2c(NC(=O)N3CC4(CCC4)c4ccccc43)cc(Br)cc21 (stereo not shown) [Compound I-1383]	6.30 to 7.00
O=C(Nc1cc(Br)cc2c1C(c1cc(F)ccc1Cl)NC2=O)c1cc(Cl)c(Cl)s1 (stereo not shown) [Compound I-1384]	6.00 to 6.30
O=C(Nc1cc(Br)cc2c1C(c1cc(F)ccc1Cl)NC2=O)c1cc(F)cc2c1NCCC2 (stereo not shown) [Compound I-1385]	6.00 to 6.30
O=C(Nc1cc(Br)cc2c1C(c1cc(F)ccc1Cl)NC2=O)c1cccc(SC(F)F)c1 (stereo not shown) [Compound I-1386]	5.00 to 6.00

SMILES	pIC50
CC(=O)N1CCC12CN(c1cc(NC(=O)c3cc(F)cc(C(F)(F)F)c3)c3c(c1)C(=O)NC3c1cc(F)ccc1Cl)C2 (stereo not shown) [Compound I-1387]	6.30 to 7.00
O=C(Nc1cc(N2CC3(CCN3)C2)cc2c1C(c1cc(F)ccc1Cl)NC2=O)c1cc(F)cc(C(F)(F)F)c1 (stereo not shown) [Compound I-1388]	6.30 to 7.00
Cn1nccc1C(O)c1cc(NC(=O)c2cc(F)cc(C(F)(F)F)c2)c2c(c1)C(=O)NC2c1cc(F)ccc1Cl (stereo not shown) [Compound I-1389]	≥ 7.00
O=C(O)COc1ncc(-c2cc(NC(=O)c3cc(F)cc(C(F)(F)F)c3)c3c(c2)C(=O)NC3c2cc(F)ccc2Cl)cn1 (stereo not shown) [Compound I-1390]	≥ 7.00
N#CCCn1cc(-c2cc(NC(=O)c3cc(F)cc(C(F)(F)F)c3)c3c(c2)C(=O)NC3c2cc(F)ccc2Cl)cn1 (stereo not shown) [Compound I-1397]	≥ 7.00
CS(=O)(=O)CCn1cc(-c2cc(NC(=O)c3cc(F)cc(C(F)(F)F)c3)c3c(c2)C(=O)NC3c2cc(F)ccc2Cl)cn1 (stereo not shown) [Compound I-1398]	≥ 7.00
O=C(Nc1cc(CS(=O)(=O)N2CCC2)cc2c1C(c1cc(F)ccc1Cl)NC2=O)c1cc(F)cc(C(F)(F)F)c1 (stereo not shown) [Compound I-1399]	≥ 7.00
O=C(Nc1cc(CN2CCn3ncnc3C2)cc2c1C(c1cc(F)ccc1Cl)NC2=O)c1cc(F)cc(C(F)(F)F)c1 (stereo not shown) [Compound I-1400]	≥ 7.00
O=C(Nc1cc(CN2CCn3cnnc3C2)cc2c1C(c1cc(F)ccc1Cl)NC2=O)c1cc(F)cc(C(F)(F)F)c1 (stereo not shown) [Compound I-1401]	≥ 7.00
O=C(Nc1cc(CS(=O)(=O)Nc2cccnc2)cc2c1C(c1cc(F)ccc1Cl)NC2=O)c1cc(F)cc(C(F)(F)F)c1 (stereo not shown) [Compound I-1402]	≥ 7.00
CC(O)(c1ccncc1)c1cc(NC(=O)c2cc(F)cc(C(F)(F)F)c2)c2c(c1)C(=O)NC2c1cc(F)ccc1Cl (stereo not shown) [Compound I-1403]	≥ 7.00
Cn1cc(-c2cc(NC(=O)c3cc(F)cc(C(F)(F)F)c3)c3c(c2)C(=O)NC3c2cc(F)ccc2Cl)cnc1=O (stereo not shown) [Compound I-1404]	≥ 7.00
N#Cc1cccnc1-c1cc(NC(=O)c2cc(F)cc(C(F)(F)F)c2)c2c(c1)C(=O)NC2c1cc(F)ccc1Cl (stereo not shown) [Compound I-1408]	≥ 7.00
Nc1cnc2ccc(-c3cc(NC(=O)c4cc(F)cc(C(F)(F)F)c4)c4c(c3)C(=O)NC4c3cc(F)ccc3Cl)cn12 (stereo not shown) [Compound I-1409]	≥ 7.00
N#Cc1cnc2ccc(-c3cc(NC(=O)c4cc(F)cc(C(F)(F)F)c4)c4c(c3)C(=O)NC4c3cc(F)ccc3Cl)cn12 (stereo not shown) [Compound I-1410]	≥ 7.00
Nc1cn2cc(-c3cc(NC(=O)c4cc(F)cc(C(F)(F)F)c4)c4c(c3)C(=O)NC4c3cc(F)ccc3Cl)ccc2n1 (stereo not shown) [Compound I-1411]	≥ 7.00
O=C(Nc1cc(OCc2cccnc2)cc2c1C(c1cc(F)ccc1Cl)NC2=O)c1cc(F)cc(C(F)(F)F)c1 (stereo not shown) [Compound I-1412]	≥ 7.00
[2H]C1(c2cc(F)ccc2Cl)NC(=O)c2cc(-c3ccc4ncnn4c3)cc(NC(=O)c3cc(F)cc(C(F)(F)F)c3)c21 (stereo not shown) [Compound I-1413]	≥ 7.00
O=C(Nc1cc(OCC(O)CCO)cc2c1C(c1cc(F)ccc1Cl)NC2=O)c1cc(F)cc(C(F)(F)F)c1 (stereo not shown) [Compound I-1414]	≥ 7.00
O=C(Nc1cc(-c2ccc3ocnc3c2)cc2c1C(c1cc(F)ccc1Cl)NC2=O)c1cc(F)cc(C(F)(F)F)c1 (stereo not shown) [Compound I-1415]	≥ 7.00
